Experimental data reported in patent US20220348567A1, “NOVEL OXADIAZOLE COMPOUNDS CONTAINING 5- MEMBERED HETEROAROMATIC RING FOR CONTROLLING OR PREVENTING PHYTOPATHOGENIC FUNGI” (PI INDUSTRIES LTD., priority 2019, published 2022).

Columns and labels:
[1] = tested on: Phakopsora pachyrhizi; experiment: Phakopsora pachyrhizi test in soybean, greenhouse, preventive activity; format: in vivo, Phakopsora pachyrhizi on soybean plants; conditions: 24 h, spray one day before inoculation, soybean plants, read-out: control (efficacy, disease severity rating versus untreated control)
Method: Compounds were dissolved in 2% dimethyl sulfoxide/acetone and then mixed with water containing emulsifier to the calibrated spray volume of 50 mL. Each spray solution was poured into a spray bottle for further application. To test the preventive activity of the compound, healthy young Soybean plants, raised in the greenhouse, were sprayed with the active compound preparation at the stated application rate inside the spray cabinets using hollow cone nozzles. One day aftertreatment, the plants were inoculated with a conidial suspension containing 2×10^5Phakopsora […]. The inoculated plants were then kept in a greenhouse chamber at 22-24° C. temperature and 80-90% relative humidity for disease expression. A visual assessment of the compound's performance was carried out by rating the disease severity (0-100% scale) on treated plants 3, 7, 10 and 15 days after application. Efficacy (% control) of the compound was calculated by comparing the disease rating in the treatment with the one of the untreated control. The sprayed plants were also assessed for plant damage by recording symptoms like necrosis, chlorosis and stunting.

[2] = tested on: Parastagonospora nodorum; experiment: Parastagonospora nodorum (PARANO) microtiter growth inhibition assay, OD600; format: cell-based; conditions: 18° C., 15-18 days, read-out: control (growth inhibition by OD600)
Method: Potato dextrose (PDB) liquid medium (Difco) containing a […] (10^5 spores/ml) spore suspension was prepared. For the inhibition assay, each test compound was solved in dimethyl sulfoxide. 100 μl of the test media-solution was added to a 96-well microtiter plate, consequently, the same volume (100 μl) of spore suspension was added to the well making the final test concentrations and the plate was incubated at 18° C. for 15-18 days. The growth inhibition was evaluated by measuring the OD600. Percent inhibition was calculated with the below formula: I=([…])*100 Where T=treatment, C═control, and B=blank

Q: How did the pest or weed control at 500 ppm [1] turn out when `CCOC(=O)Cc1cn(-c2ccc(-c3noc(C(F)(F)F)n3)cc2)cn1` [Compound 1, Ethyl 2-(1-(4-(5-(trifluoromethyl)-1,2,4-oxadiazol-3-yl)phenyl)-1H-imidazol-4-yl)acetate] was run?
A: Its pest or weed control at 500 ppm is ≤ 70%.

Q: For `COc1ccc(NC(=O)Cc2cn(-c3ccc(-c4noc(C(F)(F)F)n4)cc3)cn2)cc1` [Compound 2, N-(4-methoxyphenyl)-2-(1-(4-(5-(trifluoromethyl)-1,2,4-oxadiazol-3-yl)phenyl)-1H-imidazol-4-yl)acetamide], which pest or weed control at 500 ppm [1] is on record?
A: The pest or weed control at 500 ppm was ≤ 70%.

Q: For `O=C(Cc1cn(-c2ccc(-c3noc(C(F)(F)F)n3)cc2)cn1)N1CCCC1` [Compound 3, 1-(pyrrolidin-1-yl)-2-(1-(4-(5-(trifluoromethyl)-1,2,4-oxadiazol-3-yl)phenyl)-1H-imidazol-4-yl)ethan-1-one], which pest or weed control at 500 ppm [1] is on record?
A: The pest or weed control at 500 ppm was ≤ 70%.

Q: And the inhibition at 300 ppm [2]?
A: Its inhibition at 300 ppm is ≥ 70%.

Q: For `O=C(Cc1cn(-c2ccc(-c3noc(C(F)(F)F)n3)cc2)cn1)NCc1ccccc1` [Compound 4, N-benzyl-2-(1-(4-(5-(trifluoromethyl)-1,2,4-oxadiazol-3-yl)phenyl)-1H-imidazol-4-yl)acetamide], which pest or weed control at 500 ppm [1] is on record?
A: Its pest or weed control at 500 ppm is ≤ 70%.

Q: For `COc1ccc(CNC(=O)Cc2cn(-c3ccc(-c4noc(C(F)(F)F)n4)cc3)cn2)cc1` [Compound 5, N-(4-methoxybenzyl)-2-(1-(4-(5-(trifluoromethyl)-1,2,4-oxadiazol-3-yl)phenyl)-1H-imidazol-4-yl)acetamide], which pest or weed control at 500 ppm [1] is on record?
A: The pest or weed control at 500 ppm was ≤ 70%.

Q: What does the source list for `O=C(Cc1cn(-c2ccc(-c3noc(C(F)(F)F)n3)cc2)cn1)NCc1ccc(F)cc1` [Compound 6, N-(4-fluorobenzyl)-2-(1-(4-(5-(trifluoromethyl)-1,2,4-oxadiazol-3-yl)phenyl)-1H-imidazol-4-yl)acetamide]?
A: pest or weed control at 500 ppm [1]: ≤ 70%; inhibition at 300 ppm [2]: ≥ 70%

Q: For `O=C(Cc1cn(-c2ccc(-c3noc(C(F)(F)F)n3)cc2)cn1)NCc1ccccc1F` [Compound 7, N-(2-fluorobenzyl)-2-(1-(4-(5-(trifluoromethyl)-1,2,4-oxadiazol-3-yl)phenyl)-1H-imidazol-4-yl)acetamide], which pest or weed control at 500 ppm [1] is on record?
A: The pest or weed control at 500 ppm was ≤ 70%.

Q: For `Cc1ccc(NC(=O)Cc2cn(-c3ccc(-c4noc(C(F)(F)F)n4)cc3)cn2)cc1` [Compound 8, N-(p-tolyl)-2-(1-(4-(5-(trifluoromethyl)-1,2,4-oxadiazol-3-yl)phenyl)-1H-imidazol-4-yl)acetamide], which pest or weed control at 500 ppm [1] is on record?
A: Its pest or weed control at 500 ppm is ≤ 70%.

Q: With `O=C(Cc1cn(-c2ccc(-c3noc(C(F)(F)F)n3)cc2)cn1)Nc1ccc(Cl)cc1` [Compound 9, N-(4-chlorophenyl)-2-(1-(4-(5-(trifluoromethyl)-1,2,4-oxadiazol-3-yl)phenyl)-1H-imidazol-4-yl)acetamide] as the compound, how does the pest or weed control at 500 ppm [1] read?
A: Its pest or weed control at 500 ppm is ≤ 70%.

Q: For `O=C(Cc1cn(-c2ccc(-c3noc(C(F)(F)F)n3)cc2)cn1)Nc1cccc(F)c1` [Compound 10, N-(3-fluorophenyl)-2-(1-(4-(5-(trifluoromethyl)-1,2,4-oxadiazol-3-yl)phenyl)-1H-imidazol-4-yl)acetamide], which pest or weed control at 500 ppm [1] is on record?
A: The pest or weed control at 500 ppm was ≤ 70%.

Q: `O=C(Cc1cn(-c2ccc(-c3noc(C(F)(F)F)n3)cc2)cn1)N1CCCCC1` [Compound 11, 1-(piperidin-1-yl)-2-(1-(4-(5-(trifluoromethyl)-1,2,4-oxadiazol-3-yl)phenyl)-1H-imidazol-4-yl)ethan-1-one] was tested. Which pest or weed control at 500 ppm [1] did it give?
A: Its pest or weed control at 500 ppm is ≤ 70%.

Q: `COc1cccc(NC(=O)Cc2cn(-c3ccc(-c4noc(C(F)(F)F)n4)cc3)cn2)c1` [Compound 12, N-(3-methoxyphenyl)-2-(1-(4-(5-(trifluoromethyl)-1,2,4-oxadiazol-3-yl)phenyl)-1H-imidazol-4-yl)acetamide] was tested. Which pest or weed control at 500 ppm [1] did it give?
A: Its pest or weed control at 500 ppm is ≤ 70%.

Q: For `O=C(Cc1cn(-c2ccc(-c3noc(C(F)(F)F)n3)cc2)cn1)Nc1cccnc1` [Compound 13, N-(pyridin-3-yl)-2-(1-(4-(5-(trifluoromethyl)-1,2,4-oxadiazol-3-yl)phenyl)-1H-imidazol-4-yl)acetamide], which pest or weed control at 500 ppm [1] is on record?
A: Its pest or weed control at 500 ppm is ≤ 70%.

Q: Which pest or weed control at 500 ppm [1] does the source give for `O=C(Cc1cn(-c2ccc(-c3noc(C(F)(F)F)n3)cc2)cn1)Nc1ccccc1Br` [Compound 14, N-(2-bromophenyl)-2-(1-(4-(5-(trifluoromethyl)-1,2,4-oxadiazol-3-yl)phenyl)-1H-imidazol-4-yl)acetamide] here?
A: Its pest or weed control at 500 ppm is ≤ 70%.

Q: For `O=C(Cc1cn(-c2ccc(-c3noc(C(F)(F)F)n3)cc2)cn1)Nc1ccccc1` [Compound 15, N-phenyl-2-(1-(4-(5-(trifluoromethyl)-1,2,4-oxadiazol-3-yl)phenyl)-1H-imidazol-4-yl)acetamide], which pest or weed control at 500 ppm [1] is on record?
A: Its pest or weed control at 500 ppm is ≤ 70%.

Q: And the inhibition at 300 ppm [2]?
A: The inhibition at 300 ppm was ≥ 70%.

Q: Which pest or weed control at 500 ppm [1] does the source give for `COc1ccc(C)c(NC(=O)Cc2cn(-c3ccc(-c4noc(C(F)(F)F)n4)cc3)cn2)c1` [Compound 16, N-(5-methoxy-2-methylphenyl)-2-(1-(4-(5-(trifluoromethyl)-1,2,4-oxadiazol-3-yl)phenyl)-1H-imidazol-4-yl)acetamide] here?
A: The pest or weed control at 500 ppm was ≤ 70%.

Q: What about the inhibition at 300 ppm [2] of the same compound?
A: Its inhibition at 300 ppm is ≥ 70%.

Q: Which results are given for `COc1cc(F)ccc1NC(=O)Cc1cn(-c2ccc(-c3noc(C(F)(F)F)n3)cc2)cn1` [Compound 17, N-(4-fluoro-2-methoxyphenyl)-2-(1-(4-(5-(trifluoromethyl)-1,2,4-oxadiazol-3-yl)phenyl)-1H-imidazol-4-yl)acetamide]?
A: pest or weed control at 500 ppm [1]: ≤ 70%; inhibition at 300 ppm [2]: ≥ 70%

Q: How did the pest or weed control at 500 ppm [1] turn out when `Cc1ccccc1S(C)(=O)=NC(=O)c1cnn(-c2ccc(-c3noc(C(F)(F)F)n3)cc2)c1` (centres unmarked) [Compound 19, N-(methyl(oxo)(o-tolyl)-λ^6-sulfaneylidene)-1-(4-(5-(trifluoromethyl)-1,2,4-oxadiazol-3-yl)phenyl)-1H-pyrazole-4-carboxamide] was run?
A: The pest or weed control at 500 ppm was ≤ 70%.

Q: Which pest or weed control at 500 ppm [1] does the source give for `COc1ccccc1S(C)(=O)=NC(=O)c1cnn(-c2ccc(-c3noc(C(F)(F)F)n3)cc2)c1` (centres unmarked) [Compound 20, N-((2-methoxyphenyl)(methyl)(oxo)-λ^6-sulfaneylidene)-1-(4-(5-(trifluoromethyl)-1,2,4-oxadiazol-3-yl)phenyl)-1H-pyrazole-4-carboxamide] here?
A: Its pest or weed control at 500 ppm is ≤ 70%.

Q: For `COc1ccc(S(C)(=O)=NC(=O)c2cnn(-c3ccc(-c4noc(C(F)(F)F)n4)cc3)c2)cc1` (centres unmarked) [Compound 21, N-((4-methoxyphenyl)(methyl)(oxo)-λ^6-sulfaneylidene)-1-(4-(5-(trifluoromethyl)-1,2,4-oxadiazol-3-yl)phenyl)-1H-pyrazole-4-carboxamide], which pest or weed control at 500 ppm [1] is on record?
A: Its pest or weed control at 500 ppm is ≤ 70%.

Q: How did the pest or weed control at 500 ppm [1] turn out when `CS(=O)(=NC(=O)c1cnn(-c2ccc(-c3noc(C(F)(F)F)n3)cc2)c1)c1ccccc1` (centres unmarked) [Compound 22, N-(methyl(oxo)(phenyl)-λ^6-sulfaneylidene)-1-(4-(5-(trifluoromethyl)-1,2,4-oxadiazol-3-yl)phenyl)-1H-pyrazole-4-carboxamide] was run?
A: Its pest or weed control at 500 ppm is ≤ 70%.

Q: How did the pest or weed control at 500 ppm [1] turn out when `CS(=O)(=NC(=O)c1cnn(-c2ccc(-c3noc(C(F)(F)F)n3)cc2)c1)c1cccc(F)c1` (centres unmarked) [Compound 23, N-((3-fluorophenyl)(methyl)(oxo)-λ^6-sulfanylidene)-1-(4-(5-(trifluoromethyl)-1,2,4-oxadiazol-3-yl)phenyl)-1H-pyrazole-4-carboxamide] was run?
A: The pest or weed control at 500 ppm was ≤ 70%.

Q: How did the inhibition at 300 ppm [2] turn out when `Cc1cccc(S(C)(=O)=NC(=O)c2ccn(-c3ccc(-c4noc(C(F)(F)F)n4)cc3)c2)c1` (centres unmarked) [Compound 24, N-(methyl(oxo)(m-tolyl)-λ^6-sulfanylidene)-1-(4-(5-(trifluoromethyl)-1,2,4-oxadiazol-3-yl)phenyl)-1H-pyrrole-3-carboxamide] was run?
A: The inhibition at 300 ppm was ≥ 70%.

Q: With `COCCS(=O)(=NC(=O)c1ccn(-c2ccc(-c3noc(C(F)(F)F)n3)cc2)c1)c1ccccn1` (centres unmarked) [Compound 25, N-((2-methoxyethyl)(oxo)(pyridin-2-yl)-λ^6-sulfanylidene)-1-(4-(5-(trifluoromethyl)-1,2,4-oxadiazol-3-yl)phenyl)-1H-pyrrole-3-carboxamide] as the compound, how does the pest or weed control at 500 ppm [1] read?
A: The pest or weed control at 500 ppm was ≤ 70%.

Q: How did the pest or weed control at 500 ppm [1] turn out when `CS(=O)(=NC(=O)c1ccn(-c2ccc(-c3noc(C(F)(F)F)n3)cc2)c1)c1ccc(F)cc1` (centres unmarked) [Compound 27, N-((4-fluorophenyl)(methyl)(oxo)-λ^6-sulfanylidene)-1-(4-(5-(trifluoromethyl)-1,2,4-oxadiazol-3-yl)phenyl)-1H-pyrrole-3-carboxamide] was run?
A: The pest or weed control at 500 ppm was ≤ 70%.

Q: How did the pest or weed control at 500 ppm [1] turn out when `COc1ccnc(S(C)(=O)=NC(=O)c2ccn(-c3ccc(-c4noc(C(F)(F)F)n4)cc3)c2)c1` (centres unmarked) [Compound 29, N-((4-methoxypyridin-2-yl)(methyl)(oxo)-λ^6-sulfanylidene)-1-(4-(5-(trifluoromethyl)-1,2,4-oxadiazol-3-yl)phenyl)-1H-pyrrole-3-carboxamide] was run?
A: Its pest or weed control at 500 ppm is ≤ 70%.

Q: And the inhibition at 300 ppm [2]?
A: Its inhibition at 300 ppm is ≥ 70%.

Q: `CS(C)(=O)=NC(=O)c1ccn(-c2ccc(-c3noc(C(F)(F)F)n3)cc2)c1` [Compound 30, N-(dimethyl(oxo)-λ^6-sulfanylidene)-1-(4-(5-(trifluoromethyl)-1,2,4-oxadiazol-3-yl)phenyl)-1H-pyrrole-3-carboxamide] was tested. Which pest or weed control at 500 ppm [1] did it give?
A: The pest or weed control at 500 ppm was ≤ 70%.

Q: What about the inhibition at 300 ppm [2] of the same compound?
A: Its inhibition at 300 ppm is ≥ 70%.

Q: With `FC(F)(F)c1nc(-c2ccc(-n3cnc(CSc4ccccc4)c3)cc2)no1` [Compound 43, 3-(4-(4-((phenylthio)methyl)-1H-imidazol-1-yl)phenyl)-5-(trifluoromethyl)-1,2,4-oxadiazole] as the compound, how does the inhibition at 300 ppm [2] read?
A: Its inhibition at 300 ppm is ≥ 70%.
